Laboratory results: the supplement of paper PMC10307832

Each cell line was assayed with COC1=CC=C(C=C1)CN2C=CC3=C2C=C(C=C3)C(=O)NO + N=C(N)NC(=N)NCCc1ccccc1 [Phenformin] (partner 250 µM) (assay: relative viability (nuclei count vs DMSO), 5 days (fraction); higher = more cells survive). Conditions: first compound 0.08 µM.
How it was run: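 Relative viability divides the nuclei count in treated wells by that in vehicle wells. Lung cancer cell lines were seeded in 1536-well plates, dosed by pin tool the next day, and fixed and stained after 5 days in one step with final 0.05% Triton X-100, 1% formaldehyde and 1 ug/ml Hoechst. Dosing was a single drug or a fixed anchor-drug dose plus five library-drug doses (not always all listed) in √10 steps, and values are medians of duplicate plates imaged at 4×.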
NCI-H1975 gave a relative viability of 0.442.
In the case of H3255, the relative viability is reported as 0.334.
For NCI-H2023, the relative viability was 0.38.
With NCI-H2405 the relative viability was 0.327.
SK-LU-1 was tested, and the relative viability was 0.551.
For NCI-H1437, the relative viability was 0.289.
NCI-H596 gave a relative viability of 0.774.
HCC-15 showed a relative viability of 0.344.
Cell Line NCI-H460 has a relative viability of 0.519.
In the case of EMC-BAC-2, the relative viability is reported as 0.367.
Work on NCI-H2009 yielded a relative viability of 0.489.
In the case of COR-L 105, the relative viability is reported as 0.383.
NCI-H1395 showed a relative viability of 0.37.
For HCC-78, the relative viability was 0.62.
Work on EKVX yielded a relative viability of 0.192.
NCI-H1650 showed a relative viability of 0.4.
With EPLC-272H the relative viability was 0.265.
Work on NCI-H1563 yielded a relative viability of 0.622.

Same assay, conditions: first compound 0.253 µM
NCI-H2342 showed a relative viability of 0.511.
Work on NCI-H1623 yielded a relative viability of 0.581.
For LU99A, the relative viability was 0.826.
In the case of NCI-H1975, the relative viability is reported as 0.417.
In the case of H3255, the relative viability is reported as 0.39.
NCI-H2023 showed a relative viability of 0.409.
NCI-H2405 gave a relative viability of 0.431.
Work on SK-LU-1 yielded a relative viability of 0.566.
NCI-H1734 showed a relative viability of 0.413.
Cell Line NCI-H1437 has a relative viability of 0.348.
ABC-1 showed a relative viability of 0.216.
NCI-H596 showed a relative viability of 0.99.
Cell Line HCC-15 has a relative viability of 0.515.
Work on NCI-H460 yielded a relative viability of 0.463.
In the case of EMC-BAC-2, the relative viability is reported as 0.543.
NCI-H2009 showed a relative viability of 0.483.
With COR-L 105 the relative viability was 0.492.
Cell Line NCI-H1395 has a relative viability of 0.463.
For NCI-H520, the relative viability was 0.618.
Cell Line NCI-H358 has a relative viability of 0.351.
Cell Line HCC-78 has a relative viability of 0.63.
For EKVX, the relative viability was 0.239.
Cell Line NCI-H1650 has a relative viability of 0.447.
Cell Line LK-2 has a relative viability of 0.462.
With PC-14 the relative viability was 0.348.
Cell Line LXF-289 has a relative viability of 0.554.
Cell Line A549 has a relative viability of 0.159.
NCI-H1563 was tested, and the relative viability was 0.676.

Same assay, conditions: first compound 0.8 µM
With NCI-H2342 the relative viability was 0.48.
In the case of NCI-H1623, the relative viability is reported as 0.542.
LU99A showed a relative viability of 0.915.
Work on NCI-H1975 yielded a relative viability of 0.431.
Work on H3255 yielded a relative viability of 0.347.
In the case of NCI-H2023, the relative viability is reported as 0.383.
For NCI-H2405, the relative viability was 0.39.
SK-LU-1 showed a relative viability of 0.596.
For NCI-H1734, the relative viability was 0.386.
With NCI-H1437 the relative viability was 0.36.
ABC-1 gave a relative viability of 0.246.
In the case of NCI-H596, the relative viability is reported as 0.769.
With HCC-15 the relative viability was 0.486.
Cell Line NCI-H460 has a relative viability of 0.509.
With EMC-BAC-2 the relative viability was 0.422.
With NCI-H2009 the relative viability was 0.482.
With COR-L 105 the relative viability was 0.335.
NCI-H1395 showed a relative viability of 0.469.
NCI-H520 gave a relative viability of 0.645.
Work on NCI-H358 yielded a relative viability of 0.411.
For HCC-78, the relative viability was 0.718.
EKVX was tested, and the relative viability was 0.264.
NCI-H1650 was tested, and the relative viability was 0.422.
EPLC-272H gave a relative viability of 0.329.
LK-2 gave a relative viability of 0.579.
PC-14 gave a relative viability of 0.667.
Cell Line LXF-289 has a relative viability of 0.517.
In the case of A549, the relative viability is reported as 0.173.
With NCI-H1563 the relative viability was 0.671.

Same assay, conditions: first compound 2.53 µM
NCI-H2342 was tested, and the relative viability was 0.453.
Work on NCI-H1623 yielded a relative viability of 0.616.
LU99A gave a relative viability of 0.875.
Cell Line NCI-H1975 has a relative viability of 0.407.
H3255 showed a relative viability of 0.353.
Work on NCI-H2023 yielded a relative viability of 0.392.
Work on NCI-H2405 yielded a relative viability of 0.416.
SK-LU-1 showed a relative viability of 0.604.
In the case of NCI-H1734, the relative viability is reported as 0.392.
Cell Line NCI-H1437 has a relative viability of 0.424.
Cell Line ABC-1 has a relative viability of 0.296.
With NCI-H596 the relative viability was 0.655.
With HCC-15 the relative viability was 0.483.
In the case of NCI-H460, the relative viability is reported as 0.473.
For EMC-BAC-2, the relative viability was 0.526.
NCI-H2009 showed a relative viability of 0.501.
For COR-L 105, the relative viability was 0.34.
NCI-H1395 was tested, and the relative viability was 0.407.
Cell Line NCI-H520 has a relative viability of 0.703.
Work on NCI-H358 yielded a relative viability of 0.314.
Cell Line HCC-78 has a relative viability of 0.818.
For EKVX, the relative viability was 0.225.
Work on NCI-H1650 yielded a relative viability of 0.334.
Cell Line EPLC-272H has a relative viability of 0.318.
In the case of LK-2, the relative viability is reported as 0.396.
With PC-14 the relative viability was 0.639.
LXF-289 showed a relative viability of 0.512.
For A549, the relative viability was 0.188.
NCI-H1563 was tested, and the relative viability was 0.664.

Same assay, conditions: first compound 8 µM
NCI-H2342 showed a relative viability of 0.409.
NCI-H1623 showed a relative viability of 0.513.
LU99A showed a relative viability of 0.685.
NCI-H1975 showed a relative viability of 0.399.
H3255 gave a relative viability of 0.359.
Cell Line NCI-H2023 has a relative viability of 0.299.
In the case of NCI-H2405, the relative viability is reported as 0.365.
SK-LU-1 gave a relative viability of 0.469.
With NCI-H1734 the relative viability was 0.383.
Work on NCI-H1437 yielded a relative viability of 0.274.
For ABC-1, the relative viability was 0.234.
NCI-H596 was tested, and the relative viability was 0.666.
HCC-15 showed a relative viability of 0.408.
For NCI-H460, the relative viability was 0.188.
EMC-BAC-2 was tested, and the relative viability was 0.449.
NCI-H2009 was tested, and the relative viability was 0.43.
In the case of COR-L 105, the relative viability is reported as 0.271.
NCI-H1395 was tested, and the relative viability was 0.413.
In the case of NCI-H520, the relative viability is reported as 0.503.
With NCI-H358 the relative viability was 0.267.
For HCC-78, the relative viability was 0.65.
In the case of EKVX, the relative viability is reported as 0.219.
NCI-H1650 was tested, and the relative viability was 0.204.
For EPLC-272H, the relative viability was 0.333.
LK-2 gave a relative viability of 0.24.
Cell Line PC-14 has a relative viability of 0.488.
Cell Line LXF-289 has a relative viability of 0.508.
Cell Line A549 has a relative viability of 0.0674.
NCI-H1563 gave a relative viability of 0.534.
